# Source: patent publication US20240317827A1, “LINEAR PEPTIDES INHIBITING CK2-MEDIATED PHOSPHORYLATION AND COMPOSITIONS COMPRISING SAME” (CENTRO DE INGENIERÍA GENÉTICA Y BIOTECNOLOGÍA, priority 2021, published 2024)
# pIC50: −log10 of the molar value. Where two headings read alike, the source gives them in different places. Where a SMILES comes first, the peptide text is derived from it. Bridges are numbered along the chain shown (N, C = ends). [ ]: non-standard residue; d: D form. βAla = NCCC(=O)O
# Assays:
# [1] = test system: PanC-1 (pancreatic carcinoma) cell line; test: cell proliferation assay, PanC-1 line; assay type: cell-based; details: Table 7
# Procedure: (§1) The evaluation of the antiproliferative activity of synthetic polypeptides A15P35, A15P36 and A15P37 (SEQ ID NO: 46-SEQ ID NO: 48) was performed on the NCI-H125, AsPC-1, PanC-1 (pancreatic carcinoma) and OCI-AML3 (acute myeloid leukemia-3) cell lines. The test was carried out according to the procedure previously described (Perera Y, et al., 2012, J. Pept. Sci, 18 (4):215-23). […] The polypeptides A15P35, A15P36 and A15P37 were able to produce a dose-dependent effect on the proliferation of NCI-H125 cells.
# [2] = test system: AsPC-1 cell line (pancreatic adenocarcinoma); assay type: cell-based
# Procedure: The cell proliferation assay was performed following the procedure previously described (Perera Y, et al., 2012, J. Pept. Sci, 18 (4):215-23).
# as §1
# [3] = test system: NCI-H125 cell line (non-small cell lung cancer); test: cell proliferation assay, NCI-H125 line; assay type: cell-based
# Procedure: The evaluation of the antiproliferative activity of polypeptides F11P13-F11P21 (SEQ ID NO: 12-SEQ ID NO: 20) was performed on the NCI-H125 cell line. […] The antiproliferative effect of the CIGB-300 peptide has been widely characterized in this line (Cirigliano S. M., et al., 2017, Cancer Cell International, 17, 42), therefore, it was selected as a positive control. Tat peptide was used as a negative control. The polypeptides were evaluated at the concentrations of 25, 50, 100 and 200 μM. The cell proliferation assay was performed by a previously described procedure (Perera Y., et al., 2012, J. Pept. Sci, 18 (4):215-23).
# The 24 polypeptides identified as SEQ ID NO: 21-SEQ ID NO: 44 maintained the ability to inhibit the phosphorylation of the E7 protein of HPV-16, mediated by CK2, since phosphorylation inhibition values between 60-85% were obtained. […] Evaluation of the antiproliferative activity of synthetic polypeptides generated by positional scanning of Trp (SEQ ID NO: 21-SEQ ID NO: 44) was performed on the NCI-H125 cell line. The test was performed by the procedure previously described. (Perera Y., et al., 2012, J. Pept. Sci, 18 (4): 215-23). Precursor polypeptides (F11P19, F11P20, F11P21) and peptide CIGB-300 were included as positive controls. The polypeptides were evaluated at the concentrations of 12.5; 25; fifty; 100 and 200 μM.
# as §1
# (§2) Antiproliferative assays were performed on the NCI-H125, Hep2C (laryngeal carcinoma) cell lines, and on two bladder cancer lines (MGH-U3 and MGH-U4). The test was carried out according to the procedure previously described (Perera Y., et al, 2012, Pept. Sci, 18 (4):215-23).
# [4] = test system: OCI-AML3 (acute myeloid leukemia-3) cell line; test: cell proliferation assay, OCI-AML3 line; assay type: cell-based; details: Table 7
# Procedure: as §1
# [5] = biological target: T1, CK2-mediated phosphorylation of the HPV-16 E7 oncoprotein (Human papillomavirus type 16, UniProt P03129); test: in vitro phosphorylation reaction, E7 oncoprotein (GST fusion) as substrate; assay type: biochemical; details: procedure of Example 2
# T1 construct: Glutathione S-Transferase (GST); made in house; host or cells: Escherichia coli
# T1 sequence (P03129 whole entry, the tested form may be a part): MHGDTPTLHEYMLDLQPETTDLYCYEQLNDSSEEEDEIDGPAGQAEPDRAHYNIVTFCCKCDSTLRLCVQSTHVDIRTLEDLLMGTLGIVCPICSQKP
# Procedure: The assay to measure the effect of these peptides on the CK2-mediated phosphorylation of the HPV-16 E7 oncoprotein, was based on an in vitro phosphorylation reaction, where the E7 oncoprotein of HPV-16 expressed in Escherichia coli was used as substratum. This oncoprotein was obtained as a fusion protein to Glutathione S-Transferase. The assay was performed according to the procedure previously described. (Perea S. E., et al., 2004, Cancer Res., 64: 7127-7129). The results are shown in FIG. 1, and indicate that the peptides identified as SEQ ID NO: 1-SEQ ID NO: 9 are capable of inhibiting CK2-mediated phosphorylation of the E7 protein of HPV-16.
# [6] = test system: Hep2C (laryngeal carcinoma) cell line; test: cell proliferation assay, Hep2C line; assay type: cell-based; details: Table 9
# Procedure: as §2
# [7] = test system: MGH-U3 bladder cancer line; test: cell proliferation assay, MGH-U3 line; assay type: cell-based, human; details: Table 9
# Procedure: as §2
# [8] = test system: MGH-U4 bladder cancer line; test: cell proliferation assay, MGH-U4 line; assay type: cell-based; details: Table 9
# Procedure: as §2
# [9] = test system: cell proliferation in vitro; details: literature value; read-out: mean maximum inhibitory concentration (IC50), cell proliferation in vitro; cited from earlier work
# [10] = biological target: phosphoacceptor site of the CK2 enzyme in the E7 protein of HPV-16 (BIOT peptide, […]) (Human papillomavirus type 16, UniProt P03129); details: peptide coupled to resin; BIOT peptide 120 μg/mL; streptavidin-alkaline phosphatase, BCIP
# Procedure: For the identification of bioactive linear peptides that interact with the phosphoacceptor site of the CK2 enzyme, a combinatorial library of synthetic linear peptides named BCP-1 by type of “one-bead-one-compound” was screened, containing more than 16 million of different peptide sequences. […] Screening was performed with a biotinylated synthetic peptide, called BIOT, which contains the phosphoacceptor site of the CK2 enzyme in the E7 substrate of HPV-16 ([sequence], identified as SEQ ID NO: 63). The streptavidin-alkaline phosphatase conjugate was used as recognition molecule, and p-toluidine salt of 5-bromo-4-chloro-3-indolyl-phosphate (BCIP) was used as substrate for development. The blue color facilitates the visual differentiation of the beads containing bioactive sequences recognized by the BIOT peptide, compared to the bright light yellow color of the TentaGel resin at the BCP-1 library.
# The BCP-1 library was placed in a polypropylene reactor with a vacuum filtration system and mechanical agitation. It was washed with purified water and saline phosphate buffer solution (PBS) pH 7.4; and blocked with 1% bovine serum albumin (BSA) in PBS pH 7.4 for one hour. Solvents and reagents were removed by vacuum filtration. The library was incubated with 80 mL of a BIOT peptide solution at 150 g/mL in 1% BSA in PBS pH 7.4, for 16 h at 4° C. […]
# [11] = Table 7, read-out: IC50 (μM) NCI-H125
compound,measurement,setting,value
"N=C(N)NCCC[C@H](NC(=O)CN)C(=O)N[C@@H](CCCCN)C(=O)N[C@@H](CCCCN)C(=O)N[C@@H](CCCNC(=N)N)C(=O)N[C@@H](CCCNC(=N)N)C(=O)N[C@@H](CCC(N)=O)C(=O)N[C@@H](CCCNC(=N)N)C(=O)N[C@@H](CCCNC(=N)N)C(=O)N[C@@H](CCCNC(=N)N)C(=O)N1CCC[C@H]1C(=O)N1CCC[C@H]1C(=O)N[C@@H](CCC(N)=O)C(=O)NCCC(=O)N[C@@H](Cc1c[nH]c2ccccc12)C(=O)N[C@@H](CCCCN)C(=O)N[C@@H](CCCNC(=N)N)C(=O)N[C@@H](CO)C(=O)N[C@@H](CCCNC(=N)N)C(=O)N[C@@H](Cc1ccc(O)cc1)C(=O)N[C@@H](Cc1c[nH]c2ccccc12)C(=O)N1CCC[C@H]1C(N)=O [A15P35, GRKKRRQRRRPPQ-βA-WKRSRYWP] (H-GRKKRRQRRRPPQ[βAla]WKRSRYWP-NH2; N-terminus and C-terminus assumed)",IC50,[1],145 µM
same,IC50,"[2]; Table 7, read-out: IC50 (μM) AsPC-1",127 µM
same,IC50,[3]; [11],106 µM
same,IC50,[4],130 µM
"CSCC[C@@H]1NC(=O)[C@H](Cc2c[nH]c3ccccc23)NC(=O)[C@@H](NC(=O)CCNC(=O)[C@H](CCC(N)=O)NC(=O)[C@@H]2CCCN2C(=O)[C@@H]2CCCN2C(=O)[C@H](CCCNC(=N)N)NC(=O)[C@H](CCCNC(=N)N)NC(=O)[C@H](CCCNC(=N)N)NC(=O)[C@H](CCC(N)=O)NC(=O)[C@H](CCCNC(=N)N)NC(=O)[C@H](CCCNC(=N)N)NC(=O)[C@H](CCCCN)NC(=O)[C@H](CCCCN)NC(=O)[C@H](CCCNC(=N)N)NC(=O)CN)CSSC[C@@H](C(N)=O)NC(=O)[C@H]([C@@H](C)O)NC(=O)CNC(=O)[C@H](CC(C)C)NC(=O)[C@H](Cc2c[nH]cn2)NC(=O)[C@H](CCCNC(=N)N)NC(=O)[C@@H]2CCCN2C(=O)[C@H](CO)NC1=O [CIGB-300, cycle (Cys15-Cys25) GRKKRRQRRRPPQ-βA-CWMSPRHLGTC, reference compound] (H-GRKKRRQRRRPPQ[βAla]CWMSPRHLGTC-NH2; disulfide 15-25; N-terminus and C-terminus assumed)",IC50,[1],156 µM
same,pIC50,"[2]; AsPC-1, read-out: IC50",3.99
same,phosphorylation inhibition,[5],87%
same,percentage of inhibition of proliferation,"[3]; NCI-H125, evaluated at 25, 50, 100 and 200 μM, concentration not given",50%
same,pIC50,"[3]; NCI-H125, read-out: IC50 (dose-effect curves)",4.19
same,IC50,[3]; [11],64 µM
same,IC50,"[3]; Table 9, read-out: IC50 (μM) NCl-H125",64 µM
same,IC50,[6],61 µM
same,IC50,[4],63 µM
same,IC50,[7],327 µM
same,IC50,[8],335 µM
O=C(O)c1ccc2c(c1)nc(Nc1cccc(Cl)c1)c1ccncc12 [CX-4945],pIC50,[9],5.26
EQPAFHDP [P10],blue color development after enzymatic assay (interaction with the CK2 phosphoacceptor site),[10],did not develop blue coloration
VAGFFLDP [P11],blue color development after enzymatic assay (interaction with the CK2 phosphoacceptor site),[10],did not develop blue coloration
